# Measurements: patent US6255089A (priority 1998, dated 2001)
# Where two headings read alike, the source gives them in different places.
# B1: ser→phe mutant 5-HT2C receptors: rat 5-HT2C receptor with serine #312 mutated to phenylalanine (protein, UniProt P08909 33-460, looked up, variant S312F)
# 5-hydroxytryptamine receptor …: IVTDTFNSSDGGRLFQFPDGVQNWPALSIVVIIIMTIGGNILVIMAVSMEKKLHNATNYFLMSLAIADMLVGLLVMPLSLLAILYDYVWPLPRYLCPVWISLDVLFSTASIMHLCAISLDRYVAIRNPIEHSRFNSRTKAIMKIAIVWAISIGVSVPIPVIGLRDESKVFVNNTTCVLNDPNFVLIGSFVAFFIPLTIMVITYFLTIYVLRRQTLMLLRGHTEEELANMSLNFLNCCCKKNGGEEENAPNPNPDQKPRRKKKEKRPRGTMQAINNEKKAFKVLGIVFFVFLIMWCPFFITNILSVLCGKACNQKLMEKLLNVFVWIGYVCSGINPLVYTLFNKIYRRAFSKYLRCDYKPDKKPPVRQIPRVAATALSGRELNVNIYRHTNERVARKANDPEPGIEMQVENLELPVNPSNVVSERISSV
# What was measured:
# [1] = molecular target: T1, native 5-HT2A receptor (Rattus norvegicus, UniProt P14842); format: cell-based; settings: 10 μM 5-HT
# T1 construct: expressed in transfected cells; host or cells: COS-7
# [2] = molecular target: T2, cys→lys mutant 5-HT2A receptor (Rattus norvegicus, UniProt P14842, C322K); format: binding; parameters: expressed in transfected cells; host or cells: COS-7; settings: for change in binding affinity at the mutant 5-HT2A receptor: cys→lys mutant versus native, 3H-ketanserin
# Method: Saturation experiments were performed by using [^3 H]ketanserin (0.1-5.0 nM).
# [3] = molecular target: T2, cys→lys mutant 5-HT2A receptor; settings: saturation analysis
# Method: (§1) Bmax values were determined by a BCA assay.
# (§2) BMAX values were determined by a BCA assay.
# [4] = molecular target: T1, native 5-HT2A receptor; format: binding; settings: 3H-ketanserin saturation
# Method: as §1, §2
# [5] = system: 5-HT2C receptor; format: binding, rat; settings: COS-7; native versus ser→lys and ser→phe mutant
# [6] = system: 5-HT2A cys→lys mutant receptor; settings: inverse agonism; for reduction of constitutively activated IP basal activity: mutated 5-HT2A cys→lys receptor
# [7] = system: basal levels of IP production; format: cell-based, rat; settings: COS-7, no agonist
# T2 sequence (P14842 whole entry C322K): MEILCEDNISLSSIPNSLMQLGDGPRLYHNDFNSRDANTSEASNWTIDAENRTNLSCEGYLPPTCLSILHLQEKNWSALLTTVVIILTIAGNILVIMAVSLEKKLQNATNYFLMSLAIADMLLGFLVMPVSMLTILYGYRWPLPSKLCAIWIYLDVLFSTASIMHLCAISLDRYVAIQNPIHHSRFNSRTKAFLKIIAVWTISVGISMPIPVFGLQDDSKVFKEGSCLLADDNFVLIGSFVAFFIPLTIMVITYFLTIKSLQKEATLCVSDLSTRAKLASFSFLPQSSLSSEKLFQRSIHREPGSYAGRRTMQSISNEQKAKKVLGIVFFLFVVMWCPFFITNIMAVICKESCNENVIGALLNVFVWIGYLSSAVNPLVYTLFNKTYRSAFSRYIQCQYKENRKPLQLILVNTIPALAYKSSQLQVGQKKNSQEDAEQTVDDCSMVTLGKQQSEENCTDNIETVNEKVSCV
# T1 sequence (P14842 whole entry): as the sequence (P14842 whole entry C322K) above, with K322C counted along it
molecule,measurement,setting,value
"NCCc1c[nH]c2ccc(O)cc12 [5-HT, serotonin]",additional increase in IP production upon addition of 5-HT,[1],additional increase in IP production
COc1cc(CC(C)N)c(OC)cc1Br (stereo not shown) [DOB],fold increase in affinity (Ki),"[2]; rat, cos-7 cells",7.4 fold
COc1cc(CC(C)N)c(OC)cc1C (stereo not shown) [DOM],fold increase in affinity (Ki),[2]; cys→lys mutant versus native 5-HT2A receptor,5 fold
O=C(c1ccc(F)cc1)C1CCN(CCn2c(=O)[nH]c3ccccc3c2=O)CC1 [^3 H-ketanserin],"KD of 3H-ketanserin, native versus mutant",[3],did not differ between the native and mutant receptors
same,BMAX,[4],193 ± 37 fmol/mg
CN1C[C@@H](NS(=O)(=O)N(C)C)C[C@@H]2c3cccc4c3c(cn4C)C[C@H]21 [^3 H-mesulergine],5-HT2C receptor density (3H-mesulergine saturation),[5],greater in cells transfected with native receptors than in cells transfected with either the ser→lys or the ser→phe mutant receptors
O=C(c1ccc(F)cc1)C1CCN(CCn2c(=O)[nH]c3ccccc3c2=O)CC1 [ketanserin],change in binding affinity at the mutant 5-HT2A receptor,[2],no change in binding affinity
same,decrease of the constitutive IP stimulation,"[6]; COS-7, 5-HT2A cys→lys receptor",80%
CN1CCN(C2=Nc3ccccc3Oc3ccc(Cl)cc32)CC1 [loxapine],reduction of constitutively activated IP basal activity,[6],reduce the constitutively activated IP basal activity
CN1CCN2c3ccccc3Cc3ccccc3C2C1 (stereo not shown) [mianserin],change in binding affinity at the mutant 5-HT2A receptor,[2],apparent decease in the binding affinity
O=C(CCCN1CCC2(CC1)C(=O)NCN2c1ccccc1)c1ccc(F)cc1 [spiperone],change in binding affinity at the mutant 5-HT2A receptor,[2],no change in binding affinity
same,reduction of constitutively activated IP basal activity,[6],reduce the constitutively activated IP basal activity
B1,fold increase in basal levels of IP production compared with cells expressing native 5-HT2C receptors,[7],2 fold
